# Source: patent US20100184674A1, “PROADRENOMEDULLIN ALONE OR IN COMBINATION WITH BIG GASTRIN I AS A THERAPEUTIC AGENT” (priority 2007, published 2010)
# Where no end group is shown, it is not given here. [ ]: non-standard residue; d: D form. pGlu = O=C1CC[C@@H](C(=O)O)N1
# How the values were obtained:
# HIV-1IIIB = assay: HIV-1 antiviral assay in CEM-SS cells (MTS readout)
# HCMV strain AD169 = assay: HCMV plaque formation assay in MRC-5 cells; conditions: for inhibition of HCMV plaque formation as compared to the virus control: 10 micrograms per ml, 7-10 days
# [1] = tested on: hepatitis B virus (HBV) ayw strain; assay: HBV assay in HepG2-2.2.15 cells (TaqMan PCR of secreted HBV DNA); type: cell-based; conditions: 10 micrograms per ml; six days; combination 0.95 mole peptide 1 and 1.05 mole peptide 2
# From the text: HepG2-2.2.15 is a stable cell line containing the hepatitis B virus (HBV) ayw strain genome (ATCC Cat. No. CRL-11997). Antiviral compounds blocking any late step of viral replication such as transcription, translation, pregenome encapsidation, reverse transcription, particle assembly and release can be identified and characterized using this cell line. In this assay, an active compound will reduce the production of secreted HBV from cells, measured by utilizing real time quantitative PCR (TaqMan) assay to directly and accurately measure HBV DNA copies. […] After 16-24 hours the confluent monolayer of HepG2-2.2.15 cells was washed and the medium was replaced with complete medium containing test peptides—10 micrograms per ml—in duplicate. Lamivudine (3TC) was used as the positive control, while media alone was added to the cells as a negative control (virus control). […] Six days following the initial administration of the peptides, the cell culture supernatants was collected, treated with pronase and DNAse and then used in a real-time quantitative TaqMan PCR assay. The PCR-amplified HBV DNA was detected in real-time by monitoring increases in fluorescence signals that result from the exonucleolytic degradation of a quenched fluorescence probe molecule that hybridizes to the amplified HBV DNA. […] Antiviral activity was calculated from the reduction in HBV DNA levels (% virus control). […]
# murine spleen cells = assay: Th1/Th2 cytokine profiling assay (Ovalbumin restimulation); type: cell-based, Balb/c mice; conditions: 10 micrograms per ml, 72 hours
# [2] = tested on: Primary Human endothelial cells (HUVEC); assay: Endothelial cell migration assay; type: cell-based; conditions: 10 micrograms per ml; 22 hours
# HUVEC = assay: Endothelial tube formation assay; type: cell-based, human; conditions: 10 micrograms per ml; 20 hours
# Procedure: The endothelial tube formation assay is based on the ability of endothelial cells to form three-dimensional capillary-like tubular structures when cultured on a gel of basement membrane extract. […] Pre-labeled HUVEC with Calcein AM were seeded in a 96-well culture plate coated with extracellular metrix (Chemicon international Cat. ECM625) and treated with test peptides—10 micrograms per ml—in full growth medium. Positive control wes vehicle only. The endothelial cells were allowed to form tubes foe 20 hours and were then examined under an inverted fluorescent microscope. Duplicate wells for each treatment were photographed and quantitatevily analyzed for an average tubule length using image analysis software ImageProPlus. Raw data were expressed as average tubule lengths in pixels ±standard deviation. Statistic p values were computed using the Student's t-test.
# [3] = combination 0.95 mole peptide 1 and 1.05 mole peptide 2
Compound,antiviral activity of positive control compounds (HIV-1IIIB),inhibition of HBV replication as compared to the virus control infection [1],change of the production of IFN-γ (murine spleen cells; [3]),change of the production of TNF-alpha (murine spleen cells; [3]),inhibition of HCMV plaque formation as compared to the virus control (HCMV strain AD169),inhibition of the migration of human endothelial cells [2],other results
Cc1cn([C@H]2C[C@H](N=[N+]=[N-])[C@@H](CO)O2)c(=O)[nH]c1=O [AZT],expected levels of antiviral activity,–,–,–,–,–,–
"Nc1nc(O)c2ncn(COC(CO)CO)c2n1 [Ganciclovir, reference compound]",–,–,–,–,–,–,"antiviral activity of positive control compound (HCMV strain AD169; positive control, MRC-5 cells, HCMV AD169): expected levels of antiviral activity"
CC(C)(C)NC(=O)[C@@H]1CN(Cc2cccnc2)CCN1C[C@@H](O)C[C@@H](Cc1ccccc1)C(=O)N[C@H]1c2ccccc2C[C@H]1O [indinavir],expected levels of antiviral activity,–,–,–,–,–,–
Ala-Arg-Leu-Asp-Val-Ala-Ser-Glu-Phe-Arg-Lys-Lys-Trp-Asn-Lys-Trp-Ala-Leu-Ser-Arg-NH2 (ARLDVASEFRKKWNKWALSR-NH2) [Peptide 1],–,10.0%,did not significantly change,did not significantly change,did not inhibit,did not inhibit,"production of IL-2, induced by (murine spleen cells): 44.3%; production of IL-4, induced by (murine spleen cells): 43.2%; change of the production of IL-5 (murine spleen cells; [3]): did not significantly change"
Pyr-Leu-Gly-Pro-Gln-Gly-Pro-Pro-His-Leu-Val-Ala-Asp-Pro-Ser-Lys-Lys-Gln-Gly-Pro-Trp-Leu-Glu-Glu-Glu-Glu-Glu-Ala-Tyr-Gly-Trp-Met-Asp-Phe-NH2 ([pGlu]LGPQGPPHLVADPSKKQGPWLEEEEEAYGWMDF-NH2; SMILES CSCC[C@H](NC(=O)[C@H](Cc1c[nH]c2ccccc12)NC(=O)CNC(=O)[C@H](Cc1ccc(O)cc1)NC(=O)[C@H](C)NC(=O)[C@H](CCC(=O)O)NC(=O)[C@H](CCC(=O)O)NC(=O)[C@H](CCC(=O)O)NC(=O)[C@H](CCC(=O)O)NC(=O)[C@H](CCC(=O)O)NC(=O)[C@H](CC(C)C)NC(=O)[C@H](Cc1c[nH]c2ccccc12)NC(=O)[C@@H]1CCCN1C(=O)CNC(=O)[C@H](CCC(N)=O)NC(=O)[C@H](CCCCN)NC(=O)[C@H](CCCCN)NC(=O)[C@H](CO)NC(=O)[C@@H]1CCCN1C(=O)[C@H](CC(=O)O)NC(=O)[C@H](C)NC(=O)[C@@H](NC(=O)[C@H](CC(C)C)NC(=O)[C@H](Cc1c[nH]cn1)NC(=O)[C@@H]1CCCN1C(=O)[C@@H]1CCCN1C(=O)CNC(=O)[C@H](CCC(N)=O)NC(=O)[C@@H]1CCCN1C(=O)CNC(=O)[C@H](CC(C)C)NC(=O)[C@@H]1CCC(=O)N1)C(C)C)C(=O)N[C@@H](CC(=O)O)C(=O)N[C@@H](Cc1ccccc1)C(N)=O) [Peptide 2],–,11.3%,did not significantly change,did not significantly change,did not inhibit,35%,"production of IL-2, suppressed by (murine spleen cells): 100%; production of IL-4, suppressed by (murine spleen cells): 100%; production of IL-5, deceased by (murine spleen cells): 44.5%; inhibition of the tube formation of human endothelial cells (HUVEC): 9%"
